Reference: PMC5897986 (Frontiers in Endocrinology, 2018)

Key:
[1] = system: SSTR-binding sites at the cell surface of BON cells; experiment: competitive [125I]-Tyr11-SST14 radioligand binding assay, BON cells; parameters: species or system human; settings: BON whole cells, 30 min at 37°C, unlabeled peptide 0.01 nM–10 µM, gamma counter; read-out: IC50, displacement of [125I]-Tyr11-SST14
Experimental: (§1) Peptide iodination and radioligand-binding assays were performed as previously described ([21]). Briefly, 10 nmol Tyr^11-somatostatin-14 (Tyr^11–SST14, Bachem, Bubendorf, Switzerland) were iodinated by the chloramin T method ([22]) with 1 mCi carrier-free Na^125I (NEZ033L010MC, Perkin Elmer, Waltham, MA, USA) and purified by HPLC (Analytic HPLC 1200 Series, Agilent, Santa Clara, CA, USA) (see Figure S1 in Supplementary Material). For competitive radioligand binding assays, 40,000 cells were seeded in 96-well plates and grown overnight. The next day, cells were incubated in binding buffer (50 mM Hepes, pH 7.4, 5 mM MgCl2, 1 mM CaCl2, 0.5% w/v BSA, cOmplete protease inhibitors) containing 100,000 counts per minute (cpm) [^125I]-Tyr^11-SST14 and increasing concentrations of unlabeled peptide. After 30 min at 37°C, cells were washed with ice-cold washing buffer (50 mM Tris–HCl, pH 7.4, 125 mM NaCl, 0.05% w/v BSA), lysed with 1 N NaOH, transferred to vials, and measured in a gamma counter (Wallac 1470 Wizard, Perkin Elmer, Waltham, MA, USA). The obtained cpm values were analyzed with GraphPad Prism 5.04, and IC50 values were calculated by non-linear regression (one site—fit logIC50, least squares fit).

[2] = system: SSTR-binding sites at the cell surface of UMC-11 cells; experiment: competitive [125I]-Tyr11-SST14 radioligand binding assay, UMC-11 cells; parameters: species or system human; settings: UMC-11 whole cells, 30 min at 37°C, unlabeled peptide 0.01 nM–10 µM, gamma counter; read-out: IC50, displacement of [125I]-Tyr11-SST14
Experimental: as §1

[3] = system: SSTR-binding sites at the cell surface of QGP-1 cells; experiment: competitive [125I]-Tyr11-SST14 radioligand binding assay, QGP-1 cells; parameters: species or system human; settings: only background binding, unlabeled peptide 0.01 nM–10 µM
Experimental: as §1

[4] = system: SSTR-binding sites at the cell surface of LCC-18 cells; experiment: competitive [125I]-Tyr11-SST14 radioligand binding assay, LCC-18 cells; parameters: species or system human; settings: only background binding, unlabeled peptide 0.01 nM–10 µM
Experimental: as §1

[5] = system: SSTR-binding sites at the cell surface of H727 cells; experiment: competitive [125I]-Tyr11-SST14 radioligand binding assay, H727 cells; parameters: species or system human; settings: only background binding, unlabeled peptide 0.01 nM–10 µM
Experimental: as §1

[6] = system: human SSTR2 in BON-SSTR2 cells; experiment: microscopic SSTR2 internalization assay; type: cell-based; settings: BON-SSTR2, 1 µM ligand, 30 min at 37°C, confocal microscopy
Experimental: (§2) Cells were grown on coverslips for at least 24 h. […] Cells were washed with PBS, fixated in 1:1 acetone/methanol for 2 min, and incubated with anti-SSTR2 primary antibody (sc365502, Santa Cruz Biotechnology, Dallas, TX, USA) diluted 1:50 in PBS overnight at 4°C. After washing with PBS, cells were incubated with a Cy3-conjugated goat anti-mouse secondary antibody (#115-165-146, Jackson ImmunoResearch, West Grove, PA, USA) diluted 1:1,000 in PBS for 1 h at room temperature. After washing with PBS, coverslips were briefly dipped into 96% ethanol, air-dried, and mounted on glass slides with Immu-Mount (Thermo Fisher Scientific, Waltham, MA, USA). Mounted cells were imaged using a confocal laser scanning microscope (LSM510, Carl Zeiss, Jena, Germany) using a helium–neon laser at 543 nm, LP560 emission filter, and 40× or 63× NeoFluar oil immersion objectives. RIN-1038-SSTR2-GFP cells were not immunostained after fixation, but otherwise treated the same. To visualize GFP fluorescence, an argon laser at 488 nm, LP505 emission filter was utilized on the same microscope.

[7] = system: human SSTR2 in QGP-1-SSTR2 cells; experiment: microscopic SSTR2 internalization assay; type: cell-based; settings: QGP-1-SSTR2, 1 µM ligand, 30 min at 37°C, confocal microscopy
Experimental: as §2

[8] = system: metastatic, well- or moderately differentiated, non-functional enteropancreatic NET; settings: patients, CLARINET trial, placebo 18 months; cited from earlier work
Source text: Somatostatin analogs (SSAs) are well-established antisecretory drugs with a favorable safety profile that have been used as first-line treatment to control hormone hypersecretion in functionally active neuroendocrine tumors (NET) for more than 30 years ([1], [2]). […] The relevance of SSAs in antiproliferative treatment has been a matter of debate for the past two decades.

Substance | IC50 [1] | IC50 [2] | displacement of [125I]-Tyr11-SST14 binding [3] | displacement of [125I]-Tyr11-SST14 binding [4] | displacement of [125I]-Tyr11-SST14 binding [5] | SSTR2 internalization / redistribution [6] | SSTR2 internalization / redistribution [7] | median progression-free survival [8]
somatostatin-14 | 0.5 ± 0.16 nM | 0.7 ± 0.29 nM | no displacement | no displacement | no displacement | functional, ligand-dependent SSTR2 internalization | functional, ligand-dependent SSTR2 internalization | –
lanreotide | – | – | – | – | – | – | – | not reached
